Experimental data reported in patent publication US11746116B2, “Antibiotic resistance breakers” (KING'S COLLEGE LONDON, priority 2017, dated 2023).
Values after ≈ are worked out from the molar mass of the structure shown. Like-named read-outs stand apart in the source and are kept apart here.

Test system: extended bacterial panel
Assay: MIC against an extended bacterial panel (Table 15)
Assay type: cell-based

With CC(=O)NC[C@H]1CN(c2ccc(N3CCOCC3)c(F)c2)C(=O)O1 [Linezolid] the MIC (Staphylococcus aureus, ATCC 700699 / MRSA / VISA, Staphylococcus aureus Mu50, ATCC 700699, MRSA/VISA, read-out: MIC) was 2 µg/mL (≈ 5.93 µM), the MIC (Staphylococcus aureus, MRSA / NRS 3 / VISA, Staphylococcus aureus NRS3, MRSA/VISA, read-out: MIC) was 1 µg/mL (≈ 2.96 µM) and the MIC (Staphylococcus aureus, MRSA / NRS 17 / VISA, Staphylococcus aureus NRS17, MRSA/VISA, read-out: MIC) was 2 µg/mL (≈ 5.93 µM). The MIC (Staphylococcus aureus, MRSA / NRS 22 / USA600 / VISA, Staphylococcus aureus NRS22, USA600 MRSA/VISA, read-out: MIC) was 4 µg/mL (≈ 11.9 µM), the MIC (Staphylococcus aureus, MRSA / NRS 56 / VISA, Staphylococcus aureus NRS56, MRSA/VISA, read-out: MIC) was 2 µg/mL (≈ 5.93 µM) and the MIC (Staphylococcus aureus, MRSA / NRS 100, Staphylococcus aureus COL, NRS100, MRSA, read-out: MIC) was 2 µg/mL (≈ 5.93 µM). For the same compound, the MIC (Staphylococcus aureus, MRSA / NRS 269, Staphylococcus aureus NRS269, MRSA TGC-NS, read-out: MIC) was 2 µg/mL (≈ 5.93 µM), the MIC (Staphylococcus aureus, MRSA / NRS 402 / VISA, Staphylococcus aureus NRS402, MRSA/VISA DAP-NS) was 1 µg/mL (≈ 2.96 µM) and the MIC (Staphylococcus aureus, MRSA / VISA, Staphylococcus aureus FDA-CDC AR-BANK# 0215, MRSA/VISA, read-out: MIC) was 4 µg/mL (≈ 11.9 µM). For the same compound, the MIC (Staphylococcus aureus, MRSA / VISA, Staphylococcus aureus FDA-CDC AR-BANK# 0216, MRSA/VISA, read-out: MIC) was 2 µg/mL (≈ 5.93 µM), the MIC (Staphylococcus aureus, MRSA / VISA, Staphylococcus aureus FDA-CDC AR-BANK# 0217, MRSA/VISA, read-out: MIC) was 1 µg/mL (≈ 2.96 µM) and the MIC (Staphylococcus aureus, MRSA / VISA, Staphylococcus aureus FDA-CDC AR-BANK# 0218, MRSA/VISA Mupirocin-R, read-out: MIC) was 1 µg/mL (≈ 2.96 µM). For the same compound, the MIC (Staphylococcus aureus, MRSA / VISA, Staphylococcus aureus FDA-CDC AR-BANK# 0219, MRSA/VISA, read-out: MIC) was 2 µg/mL (≈ 5.93 µM), the MIC (Staphylococcus aureus, MRSA / VISA, Staphylococcus aureus FDA-CDC AR-BANK# 0220, MRSA/VISA, read-out: MIC) was 2 µg/mL (≈ 5.93 µM) and the MIC (Staphylococcus aureus, MRSA / VISA, Staphylococcus aureus FDA-CDC AR-BANK# 0221, MRSA/VISA, read-out: MIC) was 2 µg/mL (≈ 5.93 µM). For the same compound, the MIC (Staphylococcus aureus, MRSA / VISA, Staphylococcus aureus FDA-CDC AR-BANK# 0223, MRSA/VISA, read-out: MIC) was 2 µg/mL (≈ 5.93 µM), the MIC (Staphylococcus aureus, MRSA / VISA, Staphylococcus aureus FDA-CDC AR-BANK# 0224, MRSA/VISA Mupirocin-R, read-out: MIC) was 4 µg/mL (≈ 11.9 µM) and the MIC (Staphylococcus aureus, MRSA / VISA, Staphylococcus aureus FDA-CDC AR-BANK# 0225, MRSA/VISA, read-out: MIC) was 2 µg/mL (≈ 5.93 µM). The MIC (Staphylococcus aureus, MRSA / VISA, Staphylococcus aureus FDA-CDC AR-BANK# 0226, MRSA/VISA, read-out: MIC) was 2 µg/mL (≈ 5.93 µM), the MIC (Staphylococcus aureus, MRSA / VISA, Staphylococcus aureus FDA-CDC AR-BANK# 0227, MRSA/VISA, read-out: MIC) was 4 µg/mL (≈ 11.9 µM) and the MIC (Staphylococcus aureus, MRSA / VISA, Staphylococcus aureus FDA-CDC AR-BANK# 0228, MRSA/VISA Mupirocin-R, read-out: MIC) was 2 µg/mL (≈ 5.93 µM). For the same compound, the MIC (Staphylococcus aureus, MRSA / VRSA, Staphylococcus aureus VRS1, VanA MRSA/VRSA, read-out: MIC) was 2 µg/mL (≈ 5.93 µM), the MIC (Staphylococcus aureus, MRSA / VRSA, Staphylococcus aureus VRS2, VanA MRSA/VRSA, read-out: MIC) was 2 µg/mL (≈ 5.93 µM) and the MIC (Staphylococcus aureus, MRSA / VRSA, Staphylococcus aureus VRS3a, VanA MRSA/VRSA, read-out: MIC) was 4 µg/mL (≈ 11.9 µM). For the same compound, the MIC (Staphylococcus aureus, MRSA / VRSA, Staphylococcus aureus VRS11b, VanA MRSA/VRSA, read-out: MIC) was 2 µg/mL (≈ 5.93 µM), the MIC (Staphylococcus aureus, MRSA, Staphylococcus aureus ECL 2963666, MRSA DAP-NS, read-out: MIC) was 1 µg/mL (≈ 2.96 µM) and the MIC (Staphylococcus aureus, NRS 12 / VISA, Staphylococcus aureus NRS12, VISA, read-out: MIC) was 4 µg/mL (≈ 11.9 µM). The MIC (Staphylococcus aureus, VISA, Staphylococcus aureus FDA-CDC AR-BANK# 0222, VISA, read-out: MIC) was 2 µg/mL (≈ 5.93 µM), the MIC (Staphylococcus aureus, VRSA, Staphylococcus aureus ECL 2963646, VRSA, read-out: MIC) was 2 µg/mL (≈ 5.93 µM) and the MIC (Staphylococcus epidermidis, NRS7, Staphylococcus epidermidis NRS7, VISE, read-out: MIC) was 4 µg/mL (≈ 11.9 µM). For the same compound, the MIC (Staphylococcus epidermidis, NRS8, Staphylococcus epidermidis NRS8, VISE, read-out: MIC) was 2 µg/mL (≈ 5.93 µM) and the MIC (Staphylococcus epidermidis, NRS60, Staphylococcus epidermidis NRS60, VISE, read-out: MIC) was 2 µg/mL (≈ 5.93 µM).
